Measured values published in patent publication US4153709A, “N-Heterocyclic ureas as immune regulants” (Eli Lilly and Company, priority 1977, dated 1979).
Read-outs that look alike come from different tables or passages of the source.

Experiments:
[1] = system: antibody response to sheep blood cells (hemaglutination titer); assay: Immune regulating test: suppression of hemaglutination titer by 4-fold factor in mice (i.p. drug, i.p. sheep blood cells), Tables 1-15; type: in vivo, Swiss mice; conditions: Mus musculus, ip, 192 h, × 3, intraperitoneal, minimum dose to suppress the hemaglutination titer by a 4-fold factor, 8 days after antigen, read-out: Immuno-Suppressant ED4-Fold
Experimental: The ability of compounds according to the above formulas to alter immune mechanisms in a host animal was measured by their activity according to the following test. Groups of five 20-gram Swiss mice were injected intraperitoneally with standardized suspensions of an antigen--in this instance sheep blook cells. […] Eight days after injection of the antigen, the mice were bled and the sera from each group pooled. Antibody determinations were made on the serum pools by a hemaglutination pattern procedure and comparisons made between treated and control animals. In Tables 1-18 which follow, the activity of the compounds listed therein is given in terms of the minimum dose of drug necessary to suppress the hemaglutination titer by a 4-fold factor in the treated mice as compared with control titers.

[2] = system: antibody to sheep red blood cells; assay: 75 percent reduction of control antibody titer in mice by subcutaneous, percutaneous and oral routes (Table 16); type: in vivo, male Swiss mice; conditions: Mus musculus, Erythrocyte
Experimental: Subcutaneous, percutaneous, and oral activity have been achieved as indicated in Table 16 which follows employing representative compounds from the above entitled application. […] Except as indicated, the tests were performed using groups of five 20-gram male Swiss mice injected with 5×10^7 sheep red blood cells intravenously for each drug level. Ten (daily) administrations of drug were made commencing three days prior to red blood cell injection. On the day following the final treatment (7 days after red blood cell injection) the animals were bled by cardiac puncture, the sera from each five-mouse-group were pooled, and antibody titers of these serum pools and corresponding serum pools from control (untreated) mouse groups were determined. The results are expressed as the minimum drug dose effecting 75 percent reduction of control antibody titer: […]

[3] = system: Salmonella typhimurium G46 missense histidine-auxotroph; type: cell-based
Experimental: Compounds found active in the qualitative test were further tested. The culture to be tested was grown to stationary phase in tryptone yeast broth and then diluted to a viable count of about 9×10^7 organisms per milliliter.
Eleven log4 dilutions of the test compound were made covering a range that would allow survival of nonlethal mutants. The dilutions were made in Spizizen's minimal media with minute amounts of histidine and biotin (20 nM) each in […]. tubes. Each tube contained 3 ml. after dilution. Replicate 1 ml. aliquots of test organism were added to each tube including six "0" drug tubes. Final drug concentrations were calculated from 4-ml. volumes (3 ml. drug dilution +1 ml. test organism). Two of the "0" drug tubes were immediately plated at 10° dilution in minimal medium and 10^-5, 10^-6, 10^-7 dilutions in medium containing excess histidine (40 mcg/ml.) Spontaneous revertants (histidine+) were detected in the 10° dilution. Mutable population (histidine-) were detected in the 10^-5, 10^-6, and 10^-7 dilutions. All remaining dilutions were incubated in a Dubonoff shaker at 37° C. for 4 hr., then iced at 4° C. […] A 1-ml. aliquot from each "0" control was also plated at 10^-6, 10^-7, and 10^-8 dilutions in media with excess histidine to detect growth of mutable population (histidine-); normally there are 3-4 generations of the mutable population. All minimal media plates were counted. A dose response increase in revertants above spontaneous background indicated mutagenic potential of a test compound. […] Lethality has occurred to both populations, histidine+ and histidine-, at the same compound levels in all drugs tested to date.
The results are recorded as mutants test/mutants control.

[4] = system: Salmonella typhimurium G46 missense histidine-auxotroph; assay: Host mediated assay (in vivo mutagenicity), G46 indicator (Table 22); parameters: species or system Salmonella typhimurium in Cox white Swiss male mice
Experimental: Cox white Swiss male mice 25-30 grams were used in all in vivo tests.
A. Drug Administration: Appropriate solvents were used where applicable with a solvent control run within each test. […] The organisms were grown to stationary phase, then diluted with normal saline to give an inoculum near 1×10^8 organisms per milliliter. The abdominal area of the drug-treated mouse was swabbed with alcohol and two milliliters of bacterial culture were injected into the abdominal cavity of the mouse. The mice were returned to their cages for 3-4 hours.
C. Autopsy and Recovery: The mice were sacrificed individually by cervical dislocation prior to each autopsy. The abdominal areas were soaked with ethanol. The peritoneum was bared and 2.5 ml. of sterile normal saline was injected into the peritoneal cavity using a sterile (3-ml. plastic syringe with a 20-gauge needle. After insertion, the needle is turned bevel up and the saline was expelled into the cavity; while the needle remains through the peritoneum, keeping the point of the needle in sight pressed against the peritoneal wall, the abdomen of the mouse was massaged to mix contents. The saline wash was removed from the abdominal cavity back into the syringe. The needle was removed and the contents expelled into an appropriately marked tube and iced 4° C.
D. Dilution and Plating: One-ml. samples were plated at 10° dilution on all mice to determine revertants (histidine+).
A one-milliliter sample from the untreated dilutions from control animals is plated 10^-6, 10^-7, and 10^-8 dilutions with excess histidine to determine mutable population (histidine-).

[5] = system: Salmonella typhimurium G46 missense histidine-auxotroph; assay: Qualitative in vitro prescreen for mutagenicity, G46 indicator (Table 22); conditions: 200 mcg disc
Text: Filter paper discs 1/4" were impregnated with 200 mcg of test compound using either H2 O or DMSO as solvent. The discs were placed on Petri dishes containing minimal media which had been individually seeded with one of the twelve tester strains. […] A uniform circle of colonies appear around the pad when a compound with mutagenic potential is present. The test compound forms a concentration gradient as it diffuses from the pad. Occasionally, there is a clear ring in close proximity to the pad surrounded by a uniform circle of revertant colonies which indicates a lethal mutation at high concentration of compound and nonlethal mutation at lesser concentration. A single pad thus allows one to test a compound over a wide range of concentrations. Histidine+ colonies were developed enough to read after 48 hr. incubation at 37° C. The plates were read as follows:
A. background zone, if present, is measured in millimeters, if not, a negative is recorded (-).
B. mutant zone is measured in millimiters, if present; if not, a negative (-) is recorded.
C. the mutation frequency can be estimated from density of mutant colonies as follows:
1. Low frequency--few colonies
2. Moderate frequency--many colonies
3. High frequency--dense ring of colonies
4. No colonies recorded (-)

[6] = system: graft versus host reaction; assay: Graft versus host (GVH) reaction, spleen weight (Tables 20, 21); type: in vivo, mice (C57BL donors, F1 hybrid C57BL×C3H recipients)
Experimental: In this determination, […] (C57BL) mouse spleen cells are injected into mice of an F1 hybrid strain (C57BL×C3H). […] The injected cells, however, mount a reaction to the recipient's tissues due to the foreign C3H-derived antigens. As a consequence, the recipient's spleen becomes enlarged. Immunosuppressive therapy prevents or reduces this enlargement. Thus, spleen weights provide a measure of the GVH reaction and its reduction under immunosuppression.
Treated and GVH control animals receive an intraperitoneal injection of 1.2×10^9 splenic lymphocytes from the C57 donors. Spleens are weighed ten days later. Spleen weights derived from groups of recipient mice receiving genetically homologous, i.e., syngeneic cells (C57BL×C3H) provide normal control values for calculating percent inhibition in drug-treated groups. For example, mice given 13 daily topical doses of 1-(4,5,6,7-tetra-hydro-2-benzothiazolyl)-3-phenyl urea show a 62% reduction in GVH reaction relative to controls, as set forth in Table 20.
Using this procedure, three compounds from the above useful in the processes of this invention have been compared with several reference immunosuppressive drugs. Treatment levels defining the 50 percent inhibitory dose have been determined.

[7] = system: neoplasms in NZBxW mice; conditions: cited from earlier work
[8] = system: antibody to the sheep red blood cell antigen; assay: Antibody response to sheep red blood cells in marmosets, injected drug; type: in vivo; conditions: 25 mg/kg daily for three days
Experimental: In order to determine if the compounds disclosed herein had immunoalterant activity in a primate species, representative numbers of the series were tested in marmosets. 1-(2-Fluorophenyl)-3-(6-methoxy-2-benzothiazolyl) urea was injected in 25 mg/kg doses daily for three days into five marmosets. A similar group of five untreated marmosets was reserved as a control series. On the day following the third treatment, all animals received intraperitoneal injections of antigen (1×10^9 sheep red blood cells). On the 7th day following antigen injection, serum levels of antibody to the sheep red blood cell antigen were determined.

[9] = 300 mg/kg, s.c., MT/MC of 3 would indicate mutagenic potential
[10] = sc, subcutaneous, × 10 daily doses commencing 3 days before antigen i.v., read-out: Lowest Dose Producing 75% Immunosuppression, Subcutaneous
[11] = oral, × 10 daily doses commencing 3 days before antigen i.v., read-out: Lowest Dose Producing 75% Immunosuppression, Oral
[12] = percutaneous, × 10 daily doses commencing 3 days before antigen i.v., read-out: Lowest Dose Producing 75% Immunosuppression, Percutaneous

O=C(Nc1ccccc1)Nc1nc2ccccc2[nH]1 [Table 1: phenyl, H, 1-(2-benzimidazolyl)-3-phenyl urea]
minimal effective dose [1]: 12.5 mg/kg
minimal effective dose ([2]; sc, subcutaneous, *seven doses, once daily, commencing the day of antigen administration, read-out: Lowest Dose Producing 75% Immunosuppression, Subcutaneous): 31.5 mg/kg

CN(C)N=O [DMNA, N-nitrosodimethylamine]
IN VITRO QUANTITATIVE MT/MC ([3]; 750 mcg/ml): .33
IN VIVO mutants test/mutants control ([4]; 3 mg/kg, s.c.): 1.16
IN VIVO mutants test/mutants control ([4]; 30 mg/kg, s.c.): 43.6
IN VIVO mutants test/mutants control [4, 9]: 620
requirement of host mediation for mutagenic potential ([4]; mouse, in vivo): requiring host-mediation to demonstrate mutagenic potential
IN VITRO QUALITATIVE ACTIVITY [5]: N

O=C(Nc1ccccc1)Nc1nc2c(s1)CCCC2 [Table 13: phenyl, 1-(4,5,6,7-tetrahydro-2-benzothiazolyl)-3-phenyl urea]
minimal effective dose [1]: 25 mg/kg
minimal effective dose [2, 10]: 12.5 mg/kg
minimal effective dose [2, 11]: 25 to 100 mg/kg
minimal effective dose [2, 12]: 3.1 mg/kg
Percent GVH Inhibition ([6]; 50 mg/kg × 13, oral): 41%
Percent Inhibition of GVH reaction ([6]; 100 mg/kg × 13, daily topical): 62%
Mg Spleen/g Body Weight ± S.E. ([6]; 100 mg/kg × 13, daily topical, GVH control 11.03 ± 0.35, syn. control 5.20 ± 0.37): 7.42 ± 0.63 Mg Spleen/g Body Weight
Percent GVH Inhibition ([6]; 100 mg/kg × 13, oral): 54%

Cn1cnc([N+](=O)[O-])c1Sc1ncnc2nc[nH]c12 [Azathioprine, reference compound]
minimal effective dose [2, 10]: 50 to 100 mg/kg
minimal effective dose [2, 11]: 50 mg/kg
minimal effective dose [2, 12]: 100 mg/kg
Percent GVH Inhibition ([6]; 5 mg/kg × 13, s.c.): 43%
Percent GVH Inhibition ([6]; 10 mg/kg × 13, s.c.): 61%
mutagenic potential in the host-mediated system ([4]; high levels): POSSIBLE MUTAGENIC POTENTIAL
increase in neoplasms ([7]; Casey, New Zealand Medical Journal 74,290 (1973), control 0 percent): 58%

O=C(Nc1ccccc1)Nc1nc2ccccc2s1 [Table 11: phenyl, H, S, 1-(2-benzothiazolyl)-3-phenyl urea]
minimal effective dose [1]: 6.2 mg/kg
minimal effective dose [2, 10]: 1 mg/kg
minimal effective dose [2, 11]: 25 mg/kg
minimal effective dose [2, 12]: 6.2 to 12.5 mg/kg
Percent GVH Inhibition ([6]; 0.8 mg/kg × 13, s.c.): 29%
Percent GVH Inhibition ([6]; 1.6 mg/kg × 13, oral): 46%
Percent GVH Inhibition ([6]; 1.6 mg/kg × 13, s.c.): 54%
Percent GVH Inhibition ([6]; 3.12 mg/kg × 13, oral): 64%

C1CN1c1nc(N2CC2)nc(N2CC2)n1 [TEM, trimethylenemelamine]
IN VITRO QUANTITATIVE MT/MC ([3]; 180 mcg/ml): 24
IN VIVO mutants test/mutants control ([4]; 3 mg/kg, s.c.): 13
IN VIVO mutants test/mutants control ([4]; 30 mg/kg, s.c.): 27
IN VIVO mutants test/mutants control [4, 9]: 13
IN VIVO mutants test/mutants control ([4]; .3 mg/kg, s.c.): 3.2
IN VITRO QUALITATIVE FREQ (mutation frequency) [5]: MEDIUM

C[C@]12CCC(=O)C=C1CC[C@@H]1[C@@H]2C(=O)C[C@@]2(C)[C@H]1CC[C@]2(O)C(=O)CO [Cortisone, reference compound]
minimal effective dose [2, 10]: 25 mg/kg
minimal effective dose ([2]; oral, × 10, **antigen given intraperitoneally, read-out: Lowest Dose Producing 75% Immunosuppression, Oral): 200 to 400 mg/kg
minimal effective dose [2, 12]: 50 mg/kg
Percent GVH Inhibition ([6]; 1.56 mg/kg × 13, s.c.): 48%
Percent GVH Inhibition ([6]; 3.12 mg/kg × 13, s.c.): 82%

O=P1(N(CCCl)CCCl)NCCCO1 (stereo not shown) [Cyclophosphamide, reference compound]
minimal effective dose [2, 11]: 25 mg/kg
minimal effective dose [2, 12]: 25 mg/kg
Percent GVH Inhibition ([6]; 6.25 mg/kg × 13, s.c.): 32%
Percent GVH Inhibition ([6]; 12.5 mg/kg × 13, s.c.): 53%
incidence of neoplasms ([7]; Walker and Bole, J. Lab. Clin. Med. 82,619 (1972), control 5 percent): 100%

CN(N=O)C(=O)N[C@H]1C(O)O[C@H](CO)[C@@H](O)[C@@H]1O (stereo partly shown) [STREPTOZOTOCIN]
IN VITRO QUANTITATIVE MT/MC ([3]; .11 mcg/ml): 6750
IN VIVO mutants test/mutants control ([4]; 3 mg/kg, s.c.): 2782
IN VIVO mutants test/mutants control ([4]; 30 mg/kg, s.c.): 444
IN VIVO mutants test/mutants control ([4]; .03 mg/kg, s.c.): 3.35
IN VIVO mutants test/mutants control ([4]; .3 mg/kg, s.c.): 278
IN VITRO QUALITATIVE FREQ (mutation frequency) [5]: HIGH

COc1ccc2nc(NC(=O)Nc3ccccc3F)sc2c1 [Table 11: o-fluorophenyl, 6-CH3 O, S, 1-(2-Fluorophenyl)-3-(6-methoxy-2-benzothiazolyl) urea]
minimal effective dose [1]: < 3.1 mg/kg
treated animals showing detectable antibody ([8]; injected, five marmosets, 7th day following antigen): only one of the treated animals
antibody titer of the responding treated animal ([8]; controls titers from 1-10 to 1-80): 1-10

CC(=O)Oc1ccccc1C(=O)O [ASA, Acetylsalicylic Acid]
IN VITRO QUANTITATIVE MT/MC ([3]; 750 mcg/ml): .58
IN VIVO mutants test/mutants control ([4]; 30 mg/kg, oral gavage): 1.11
IN VIVO mutants test/mutants control ([4]; 300 mg/kg, oral gavage): 1.06
IN VITRO QUALITATIVE ACTIVITY [5]: N

O=C(Nc1nc2ccccc2[nH]1)Nc1cccc2ccccc12 [Table 1: α-naphthyl, H, N-(2-Benzimidazolyl)-N'-naphthylurea]
minimal effective dose [1]: 3.1 mg/kg

CCOC(=O)c1ccc2[nH]c(NC(=O)Nc3cccc(C(F)(F)F)c3)nc2c1 [Table 3: m-trifluoromethylphenyl]
minimal effective dose [1]: 100 mg/kg

O=C(Nc1nc2c(ccc3ccccc32)s1)Nc1ccccc1Cl [Table 14: o-chlorophenyl]
minimal effective dose [1]: 6.2 mg/kg

COc1ccccc1NC(=O)Nc1nc2cc(Cl)ccc2[nH]1 [Table 2: o-anisyl]
minimal effective dose [1]: < 6.2 mg/kg
